Several values for one entry are separate records, joined by “and”; a condition that tells them apart may be missing. Identical values can stand only once.
Columns and labels:
[1] = system: APP/PS1 mice; assay: N-AS level in microglia and neuron isolated from treated mice (LC-MS/MS, Fig 4b); format: in vivo, mouse; settings: N-AS 30 mg kg^-1 daily s.c. 8 weeks, individual values
Method: Reactions were quenched by adding equal volume of cold methanol. A 100 μl aliquot of the reaction mixture was mixed with 30 μl of distilled water containing 5 ng ml^−1 of furosemide (internal standard) for 1 min and vigorously mixed with […] of ethyl acetate for 20 min. After centrifugation at 16,000×g for 10 min, the mixtures were kept for 2 h for freezing aqueous phase. The upper ethyl acetate layer was transferred to a clean tube and evaporated to dryness under a gentle stream of nitrogen. Then, the dried extract was reconstituted in 100 µl of mobile phase and 10 µl aliquot of the solution was injected into an Agilent 6470 Triple Quad LC–MS/MS system (Agilent, Wilmington, DE) coupled with an Agilent 1260 HPLC system. […] Quantification was carried out using multiple reaction monitoring (MRM) at m/z 340.3→263.3 for N-AS and m/z 328.9→284.8 for furosemide (internal standard) in negative ionization mode and collision energy of 20 eV. […]
Adult neurons and microglia were isolated from the mice brain as previously described. […] The purity of the fractionated neurons and microglia were acutely confirmed by neuronal (NeuN, mouse, 1:200, Millipore, MAB377) and microglial (Iba1, rabbit, 1:1000, Wako, 019-19941) markers and the isolated neurons and microglia were acutely analyzed for the acetylation assay and lipid mediators metabololipidomics. […]

[2] = target: T1, COX2 WT (Homo sapiens, UniProt P35354); assay: filter binding assay of [14C] N-AS to COX2; settings: COX2 Control; 0.2 uM (20 pmol); replicates
T1 construct: His (N); made in house
T1 sequence (P35354 18-604): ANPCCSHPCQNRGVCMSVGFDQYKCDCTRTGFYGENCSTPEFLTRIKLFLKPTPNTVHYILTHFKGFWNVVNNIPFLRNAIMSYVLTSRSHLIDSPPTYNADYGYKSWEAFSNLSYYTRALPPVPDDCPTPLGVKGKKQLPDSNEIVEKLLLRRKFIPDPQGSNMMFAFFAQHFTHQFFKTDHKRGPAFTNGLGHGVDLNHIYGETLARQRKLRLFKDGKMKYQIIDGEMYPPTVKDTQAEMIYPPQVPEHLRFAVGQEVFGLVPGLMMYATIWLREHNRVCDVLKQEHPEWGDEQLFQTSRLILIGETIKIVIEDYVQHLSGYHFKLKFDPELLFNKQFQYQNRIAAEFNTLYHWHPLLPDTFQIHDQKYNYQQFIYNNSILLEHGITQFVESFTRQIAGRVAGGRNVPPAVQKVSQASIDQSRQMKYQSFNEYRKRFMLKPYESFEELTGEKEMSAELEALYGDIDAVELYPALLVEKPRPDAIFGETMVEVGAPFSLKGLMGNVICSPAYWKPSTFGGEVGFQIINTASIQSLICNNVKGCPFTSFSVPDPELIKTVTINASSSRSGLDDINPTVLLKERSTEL

With CCCCCCCCCCCCC/C=C/[C@@H](O)[C@H](CO)NC(C)=O [N-AS, N-((2S,3R,E)-1,3-Dihydroxyoctadec-4-en-2-yl)acetamide] the “N-AS quantification (Fig 4b)” value ([1]; Microglia of APP/PS1 mice) was 8.217 and 7.5949 and 7.58 and 7.906 and 7.587 and 7.743, the “N-AS quantification (Fig 4b)” value ([1]; Neuron of APP/PS1 mice) was 2.188 and 3.557 and 2.872 (3×) and 3.215 and the “binding velocity (Vbinding)” value [2] was 0.350 nM/min and 0.395 nM/min and 0.289 nM/min.
